Holding throughout (experiment): growth of human tumour cells (NCI), 48 h
For test [1], the system named is ACHN renal.
Test [2] relates to BT-549 breast.
For test [3], the system named is COLO 205 colon.
Test [4] concerns HOP-62 NSCLC.
In test [5] the test system is HS 578T breast.
The subject of test [6] is HT29 colon.
The test system of test [7] is K-562 leukemia.
For test [8], the system named is MALME-3M melanoma.
Test [9] deals with MCF7 breast.
The test system of test [10] is MDA-MB-435.
In test [11] the test system is NCI-H226 lung.
For test [12], the system named is NCI-H23 lung.
Test [13] deals with OVCAR-3 ovarian.
Test [14] deals with RPMI-8226 leukemia.
Test [15] relates to SF-295 CNS.
Test [16] deals with SF-539 CNS.
Test [17] deals with SK-OV-3 ovarian.
Test [18] deals with SNB-19 CNS.
The test system of test [19] is SNB-75 CNS.
The test system of test [20] is T-47D breast.

TGI data for six molecules are collected here from PubChem BioAssay (NCI).

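Assay format: 96-well plates, 48-hour exposure. TGI: total growth inhibition.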

Consider `O=C1c2ccccc2C(=O)c2c1ccc1nc3c(nc21)-c1c2ccccc2cc2cccc-3c12`, for which the TGI in [1] was more than 57.6 µM; in [2], more than 100 µM; in test [3], more than 100 µM; in test [4] it was more than 91.6 µM; in test [5], more than 52.4 µM; in test [6], more than 100 µM. Besides, the TGI in test [7] is more than 100 µM; in test [8], more than 100 µM; in test [9] it was more than 91.5 µM; in test [10], 38.6 µM; in test [11], more than 100 µM; in test [12], more than 100 µM. The TGI in test [13], in test [14], in [15], in test [16], in test [17] and in [18] was more than 100 µM in each case. Moreover, the TGI was more than 31.6 µM in [19] and more than 84.2 µM in [20].

Take `CN(Cc1cnc2nc(N)nc(N)c2n1)c1ccc(C(=O)NCS(=O)(=O)O)cc1`: the TGI in test [1], in test [2], in [3], in test [4], in test [5] and in [6] was more than 100 µM throughout. Besides, the TGI in [7], in test [8], in test [9], in test [10], in [11] and in test [12] was more than 100 µM in each case. The TGI in test [13], in test [14], in test [15], in [16], in [17] and in test [18] was more than 100 µM in each case. Moreover, the TGI in test [19] and in [20] was more than 100 µM throughout.

As for `CCOC(=O)[C@H](O)[C@@H](O)C(=O)NCc1ccc(C(=O)c2ccccc2)cc1`, the TGI in [1], in test [2], in [3], in test [4], in [5] and in test [6] was more than 100 µM in each case. For the same molecule, the TGI in test [7], in [8], in [9], in test [10], in test [11] and in test [12] was more than 100 µM each time. Moreover, the TGI in test [13], in test [14], in [15], in test [16], in [17] and in test [18] was more than 100 µM in each case. Also, the TGI in test [19] and in test [20] was more than 100 µM in each case.

In the case of `N#Cc1nc(COCc2ccccc2)oc1N`, the TGI in test [1], in test [2], in test [3], in test [4], in test [5] and in [6] was more than 100 µM throughout. For the same molecule, the TGI in test [7], in [8], in test [9], in [10], in test [11] and in [12] was more than 100 µM throughout. For the same molecule, the TGI in [13], in test [14], in test [15], in test [16], in test [17] and in test [18] was more than 100 µM throughout. The TGI in [19] and in test [20] was more than 100 µM each time.

Turning to `O=C1C(C(c2ccccc2)N2CCOCC2)=C(O)C(c2ccccc2)N1c1ccccc1` (stereo not given), the TGI in test [1], in [2], in [3], in [4], in test [5] and in test [6] was more than 10 µM in each case. For the same molecule, the TGI in test [7], in [8], in test [9], in [10], in [11] and in [12] was more than 10 µM each time. Also, the TGI in test [13], in test [14], in test [15], in [16], in test [17] and in test [18] was more than 10 µM in each case. Moreover, the TGI in test [19] and in test [20] was more than 10 µM throughout.

Regarding `Cc1n[nH]c(=O)n1/N=C/c1cccs1`, the TGI in test [1], in test [2], in test [3], in test [4], in test [5] and in test [6] was more than 100 µM throughout. In addition, the TGI in [7], in [8], in [9], in test [10], in test [11] and in test [12] was more than 100 µM throughout. Further, the TGI in [13], in [14], in [15], in test [16], in test [17] and in test [18] was more than 100 µM each time. Further, the TGI in test [19] and in [20] was more than 100 µM throughout.
